From PubChem BioAssay AID1259407 (Chemical Carcinogenesis Research Information System (CCRIS), 2018)
Calls of active or inactive are those of the source. The rule behind the calls is not given here.

System: CCRIS mutagenicity, Ames/micronucleus/aberration tests
Assay: CCRIS mutagenicity studies

O=C(O)C(Cl)CCl (configuration not stated)
mutagenic call (Test System: AMES SALMONELLA TYPHIMURIUM, Strain/Indicator: TA102, Metabolic Activation: NONE, Method: STANDARD PLATE): inactive; negative | mutagenic call (Test System: AMES SALMONELLA TYPHIMURIUM, Strain/Indicator: TA2638, Metabolic Activation: NONE, Method: STANDARD PLATE): inactive; negative | mutagenic call (Test System: E. COLI, Strain/Indicator: WP2 (PKM101), Metabolic Activation: NONE, Method: STANDARD PLATE): inactive; negative | mutagenic call (Test System: E. COLI, Strain/Indicator: WP2 UVRA (PKM101), Metabolic Activation: NONE, Method: STANDARD PLATE): inactive; negative

O=c1c2ccccc2c(=O)c2c1ccc1c3ccc4c(=O)c5c(ccc6c7ccc8c(=O)c9ccccc9c(=O)c8c7[nH]c65)c(=O)c4c3[nH]c12
mutagenic call (Test System: Ames Salmonella typhimurium, Strain/Indicator: TA98, Metabolic Activation: None, Method: Preincubation): active; positive | mutagenic call (Test System: Ames Salmonella typhimurium, Strain/Indicator: TA100, Metabolic Activation: None, Method: Preincubation): inactive; negative | mutagenic call (Test System: Ames Salmonella typhimurium, Strain/Indicator: TA102, Metabolic Activation: None, Method: Preincubation): inactive; negative | mutagenic call (Test System: Ames Salmonella typhimurium, Strain/Indicator: TA1535, Metabolic Activation: None, Method: Preincubation): inactive; negative

NC(=O)c1ccc(N)cc1
mutagenic call (Test System: AMES SALMONELLA TYPHIMURIUM, Strain/Indicator: TA98, Metabolic Activation: HAMSTER, LIVER, S-9, AROCLOR 1254, Method: STANDARD PLATE): inactive; negative | mutagenic call (Test System: AMES SALMONELLA TYPHIMURIUM, Strain/Indicator: TA98, Metabolic Activation: NONE, Method: STANDARD PLATE): inactive; negative | mutagenic call (Test System: AMES SALMONELLA TYPHIMURIUM, Strain/Indicator: TA98, Metabolic Activation: RAT, LIVER, S-9, AROCLOR 1254, Method: STANDARD PLATE): inactive; negative | mutagenic call (Test System: AMES SALMONELLA TYPHIMURIUM, Strain/Indicator: TA100, Metabolic Activation: HAMSTER, LIVER, S-9, AROCLOR 1254, Method: STANDARD PLATE): inactive; negative | mutagenic call (Test System: AMES SALMONELLA TYPHIMURIUM, Strain/Indicator: TA100, Metabolic Activation: NONE, Method: STANDARD PLATE): inactive; negative | mutagenic call (Test System: AMES SALMONELLA TYPHIMURIUM, Strain/Indicator: TA100, Metabolic Activation: RAT, LIVER, S-9, AROCLOR 1254, Method: STANDARD PLATE): inactive; negative | mutagenic call (Test System: AMES SALMONELLA TYPHIMURIUM, Strain/Indicator: TA1535, Metabolic Activation: HAMSTER, LIVER, S-9, AROCLOR 1254, Method: STANDARD PLATE): inactive; negative | mutagenic call (Test System: AMES SALMONELLA TYPHIMURIUM, Strain/Indicator: TA1535, Metabolic Activation: NONE, Method: STANDARD PLATE): inactive; negative | mutagenic call (Test System: AMES SALMONELLA TYPHIMURIUM, Strain/Indicator: TA1535, Metabolic Activation: RAT, LIVER, S-9, AROCLOR 1254, Method: STANDARD PLATE): inactive; negative | mutagenic call (Test System: AMES SALMONELLA TYPHIMURIUM, Strain/Indicator: TA1537, Metabolic Activation: HAMSTER, LIVER, S-9, AROCLOR 1254, Method: STANDARD PLATE): inactive; negative | mutagenic call (Test System: AMES SALMONELLA TYPHIMURIUM, Strain/Indicator: TA1537, Metabolic Activation: NONE, Method: STANDARD PLATE): inactive; negative | mutagenic call (Test System: AMES SALMONELLA TYPHIMURIUM, Strain/Indicator: TA1537, Metabolic Activation: RAT, LIVER, S-9, AROCLOR 1254, Method: STANDARD PLATE): inactive; negative | mutagenic call (Test System: AMES SALMONELLA TYPHIMURIUM, Strain/Indicator: TA1538, Metabolic Activation: HAMSTER, LIVER, S-9, AROCLOR 1254, Method: STANDARD PLATE): inactive; negative | mutagenic call (Test System: AMES SALMONELLA TYPHIMURIUM, Strain/Indicator: TA1538, Metabolic Activation: NONE, Method: STANDARD PLATE): inactive; negative | mutagenic call (Test System: AMES SALMONELLA TYPHIMURIUM, Strain/Indicator: TA1538, Metabolic Activation: RAT, LIVER, S-9, AROCLOR 1254, Method: STANDARD PLATE): inactive; negative | mutagenic call (Test System: Mouse lymphoma, Strain/Indicator: L5178Y (tk+/tk-), Metabolic Activation: None, Method: Suspension/plate): inactive; negative | mutagenic call (Test System: Mouse lymphoma, Strain/Indicator: L5178Y (tk+/tk-), Metabolic Activation: Rat, Liver, S-9, Aroclor 1254, Method: Suspension/plate): inactive; negative

Oc1ccc(Cl)cc1Cl
mutagenic call (End Point: IN VITRO CHROMOSOMAL ABERRATIONS, Test System: CHO CELLS, Metabolic Activation: RAT, LIVER, S-9, AROCLOR 1254): inactive; negative | mutagenic call (End Point: IN VITRO CHROMOSOMAL ABERRATIONS, Test System: CHO CELLS, Metabolic Activation: RAT, LIVER, S-9, PHENOBARBITAL AND BETA-NAPHTHOFLAVONE): active; positive | mutagenic call (End Point: IN VITRO CHROMOSOMAL ABERRATIONS, Test System: TK6 HUMAN LYMPHOBLASTS, Metabolic Activation: NONE): inactive; negative; authors reported the results as equivocal | mutagenic call (Test System: AMES SALMONELLA TYPHIMURIUM, Strain/Indicator: TA98, Metabolic Activation: HAMSTER, LIVER, S-9, AROCLOR 1254, Method: PREINCUBATION): inactive; negative | mutagenic call (Test System: AMES SALMONELLA TYPHIMURIUM, Strain/Indicator: TA98, Metabolic Activation: NONE, Method: PREINCUBATION): inactive; negative | mutagenic call (Test System: AMES SALMONELLA TYPHIMURIUM, Strain/Indicator: TA98, Metabolic Activation: RAT, LIVER, S-9, AROCLOR 1254, Method: PREINCUBATION): inactive; negative | mutagenic call (Test System: AMES SALMONELLA TYPHIMURIUM, Strain/Indicator: TA98, Metabolic Activation: S-9, Method: STANDARD PLATE): inactive; negative | mutagenic call (Test System: AMES SALMONELLA TYPHIMURIUM, Strain/Indicator: TA100, Metabolic Activation: HAMSTER, LIVER, S-9, AROCLOR 1254, Method: PREINCUBATION): inactive; negative | mutagenic call (Test System: AMES SALMONELLA TYPHIMURIUM, Strain/Indicator: TA100, Metabolic Activation: NONE, Method: PREINCUBATION): inactive; negative | mutagenic call (Test System: AMES SALMONELLA TYPHIMURIUM, Strain/Indicator: TA100, Metabolic Activation: RAT, LIVER, S-9, AROCLOR 1254, Method: PREINCUBATION): inactive; negative | mutagenic call (Test System: AMES SALMONELLA TYPHIMURIUM, Strain/Indicator: TA100, Metabolic Activation: S-9, Method: STANDARD PLATE): inactive; negative | mutagenic call (Test System: AMES SALMONELLA TYPHIMURIUM, Strain/Indicator: TA1535, Metabolic Activation: NONE, Method: PREINCUBATION): inactive; negative | mutagenic call (Test System: AMES SALMONELLA TYPHIMURIUM, Strain/Indicator: TA1535, Metabolic Activation: RAT, LIVER, S-9, AROCLOR 1254, Method: PREINCUBATION): inactive; negative | mutagenic call (Test System: AMES SALMONELLA TYPHIMURIUM, Strain/Indicator: TA1537, Metabolic Activation: HAMSTER, LIVER, S-9, AROCLOR 1254, Method: PREINCUBATION): inactive; negative | mutagenic call (Test System: AMES SALMONELLA TYPHIMURIUM, Strain/Indicator: TA1537, Metabolic Activation: NONE, Method: PREINCUBATION): inactive; negative | mutagenic call (Test System: AMES SALMONELLA TYPHIMURIUM, Strain/Indicator: TA1537, Metabolic Activation: RAT, LIVER, S-9, AROCLOR 1254, Method: PREINCUBATION): inactive; negative | mutagenic call (Test System: AMES SALMONELLA TYPHIMURIUM, Strain/Indicator: YG1021, Metabolic Activation: S-9, Method: STANDARD PLATE): inactive; negative | mutagenic call (Test System: AMES SALMONELLA TYPHIMURIUM, Strain/Indicator: YG1024, Metabolic Activation: S-9, Method: STANDARD PLATE): inactive; negative | mutagenic call (Test System: AMES SALMONELLA TYPHIMURIUM, Strain/Indicator: YG1026, Metabolic Activation: S-9, Method: STANDARD PLATE): inactive; negative | mutagenic call (Test System: AMES SALMONELLA TYPHIMURIUM, Strain/Indicator: YG1029, Metabolic Activation: S-9, Method: STANDARD PLATE): inactive; negative | mutagenic call (Test System: CHINESE HAMSTER V-79, Strain/Indicator: V-79/6-THIOGUANINE, Metabolic Activation: NONE, Method: STANDARD PLATE): inactive; negative | mutagenic call (Test System: MOUSE LYMPHOMA, Strain/Indicator: L5178Y (TK+/TK-), Metabolic Activation: NONE, Method: SUSPENSION/PLATE): active; positive
